{
  "source": "patent EP1243271A1",
  "about": "“NASAL DROPS CONTAINING FUSED PYRIDAZINE DERIVATIVES” (Takeda Chemical Industries, Ltd., priority 1999, dated 2001)",
  "key": {"histamine H1 receptor": {"target": "T1, histamine H1 receptor (Cavia porcellus, UniProt P31389)", "T1 construct": "The cerebral cortex and lung tissues were removed and homogenized in phosphate buffer solution; from tissue; host or cells: cerebral cortex and lung crude membrane fractions of male Hartley guinea pigs", "T1 sequence (P31389 whole entry)": "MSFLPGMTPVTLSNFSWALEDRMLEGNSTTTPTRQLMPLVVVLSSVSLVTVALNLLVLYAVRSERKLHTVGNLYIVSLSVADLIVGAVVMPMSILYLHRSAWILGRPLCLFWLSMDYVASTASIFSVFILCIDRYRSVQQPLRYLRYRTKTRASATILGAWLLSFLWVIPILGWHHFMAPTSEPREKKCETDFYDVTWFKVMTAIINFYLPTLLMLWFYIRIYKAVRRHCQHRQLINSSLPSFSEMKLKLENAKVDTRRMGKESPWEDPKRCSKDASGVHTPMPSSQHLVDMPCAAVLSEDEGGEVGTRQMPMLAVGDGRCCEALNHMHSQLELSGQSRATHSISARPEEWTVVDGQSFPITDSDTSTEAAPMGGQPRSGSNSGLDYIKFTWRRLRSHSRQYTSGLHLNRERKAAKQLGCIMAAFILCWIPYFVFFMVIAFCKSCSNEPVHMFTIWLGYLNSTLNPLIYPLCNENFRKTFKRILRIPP", "experiment": "Penetrability into the brain: ex vivo binding test with tritium-labeled pyrilamine in brain and lung membrane fractions", "design": "species or system guinea pigs", "protocol": "The compound of Reference Example B135 was orally administered (10 or 100 mg/kg) to male Hartley guinea pigs and, one hour later, the guinea pigs were slaughtered by decapitation. The cerebral cortex and lung tissues were removed and homogenized in phosphate buffer solution, followed by centrifugation at 4°C and 1000×g for 10 minutes. The supernatant was further centrifuged at 5000×g for 10 minutes to give crude membrane fractions. The membrane fractions were suspended in a buffer and, after adjusting the protein concentration to 1.0 mg/mL, subjected to binding test with tritium-labeled pyrilamine (2 nM). The inhibitory action on ex vivo binding test measured specific binding of pyrilamine in the brain and lung membrane fractions was calculated and used as an index of selectivity to peripheral histamine H1 receptor in the body upon oral administration of the agent."}, "guinea pig": {"tested_on": "guinea pig", "experiment": "Effect on intranasal pressure and pituita (nasal) secretion after histamine aerosol, nasal administration", "format": "in vivo", "protocol": "Animals were anesthetized with pentobarbital sodium (30 mg/kg, i.p.), and the compound of Reference Example B135 and solvent (0.1% sodium dihydrogenphosphate + 0.1% Tween 80) were administered into the both nasal cavities of guinea pig in 20 µL. The animals underwent the following test in about 0.5 hour.\nThe animals under anesthesia was held in the supine position. The neck was opened by median incision to expose the air tube. For maintenance of respiration, a polyethylene tube was inserted down into the air tube. Another polyethylene tube was inserted from the air tube incision into the rhinopharynx, and connected to a respirator via a silicon tube, through which the air was supplied into the nasal cavity at a volume of 4 mL/stroke and a frequency of 70 strokes/min. To prevent the air leak into the oral cavity, incisive canal was closed with Aron alfa A (trademark, Sankyo, Tokyo). The intranasal pressure was measured with a transducer connected to a side branch of the tube inserted into the nasal cavity. Histamine 1000 µg/mL solution was aerosolized using an ultrasonic nebulizer provided between the respirator and the tube in the nasal cavity, and the air was supplied into the nasal cavity for 3 minutes. After the histamine air supply, the intranasal pressure was depicted on an oscillograph for 15 minutes and the area under the curve was determined.\nThe pituita flowed out from the nasal cavity or pooled in the nasal cavity during the 15 minutes after histamine air supply was wiped with a cotton swab, which was weighed on an electronic weighing machine.\nWhere necessary, aerosolized physiological saline as a negative control was supplied into the nasal cavity, and the intranasal pressure and nasal secretion were measured."}, "Male Hartley guinea pigs": {"tested_on": "Male Hartley guinea pigs", "experiment": "Effect on histamine-induced increases in microvascular permeability in skin in guinea pigs", "format": "in vivo", "details": "Cavia porcellus; 3 mg/kg oral administration 1 hour before histamine; guinea pig skin", "protocol": "Male Hartley guinea pigs weighing about 500 g were used. After the dorsal hair was shaved under ether anesthesia, 1 ml of a 2.5% pontamine sky blue solution was injected intravenously, and then 0.1 ml of histamine at 3 µg/ml was injected intradermally into 2 sites (left and right) in the back. Thirty minutes after the injection of histamine, animals were fainted by knocking in the head, decapitated and killed by bleeding, after which the skin of the back was removed. The long and short diameters (mm) of each blue spot were measured and multiplied; the mean product was taken as the vascular permeability index. Test compounds were suspended in a 5% gum arabic solution and orally administered in a volume of 0.2 ml/100 g body weight at 1 hour before histamine administration. Animals in the control group received the same volume of a 5% gum arabic solution. Equation 1 Inhibition (%) of histamine-induced increases in microvascular permeability in skin = 100 × (1-vascular permeability index in the presence of drug/vascular permeability index in control group) [formula]"}, "[1]": {"details": "0.1% solution, nasal, 20 µL, histamine 1000 µg/mL aerosol"}, "[2]": {"details": "1.0% solution, nasal, 20 µL, histamine 1000 µg/mL aerosol"}},
  "data": [
    {"smiles": "CC(C)(C(=O)O)c1cn2nc(NCCCN3CCC(OC(c4ccccc4)c4ccccc4)CC3)ccc2n1.O.O", "note": "[Reference Example B135, 2-[6-[3-[4-(diphenylmethoxy)piperidino]-propylamino]imidazo[1,2-b]pyridazin-2-yl]-2-methylpropionic acid dihydrate]", "values": [
      {"measurement": "penetrability into the brain", "setting": "histamine H1 receptor; conclusion from Tables 5 and 6", "value": "poor penetrability into the brain"},
      {"measurement": "percent inhibition of specific binding of membrane fraction pyrilamine in brain", "setting": "histamine H1 receptor; oral administration of 10 mg/kg, one hour later, brain (cerebral cortex)", "value": -2.9, "unit": "%"},
      {"measurement": "percent inhibition of specific binding of pyrilamine in lung membrane fraction", "setting": "histamine H1 receptor; oral administration of 10 mg/kg, one hour later", "value": 95, "unit": "%"},
      {"measurement": "percent inhibition of specific binding of pyrilamine in brain membrane fraction", "setting": "histamine H1 receptor; oral administration of 100 mg/kg, one hour later, brain (cerebral cortex)", "value": 44, "unit": "%"},
      {"measurement": "percent inhibition of specific binding of pyrilamine in lung membrane fraction", "setting": "histamine H1 receptor; oral administration of 100 mg/kg, one hour later", "value": 95, "unit": "%"},
      {"measurement": "percent inhibition of increase in intranasal pressure by nasal administration of 0.1% solution", "setting": "guinea pig; [1]", "value": 70, "unit": "%"},
      {"measurement": "percent inhibition of nasal secretion by nasal administration of 0.1% solution", "setting": "guinea pig; [1]", "value": 72, "unit": "%"},
      {"measurement": "percent inhibition of increase in intranasal pressure by nasal administration of 1.0% solution", "setting": "guinea pig; [2]", "value": 62, "unit": "%"},
      {"measurement": "percent inhibition of nasal secretion by nasal administration of 1.0% solution", "setting": "guinea pig; [2]", "value": 78, "unit": "%"},
      {"measurement": "increase in the intranasal pressure and nasal secretion", "setting": "guinea pig; conclusion from Tables 3 and 4", "value": "reduced increase in the intranasal pressure and nasal secretion"},
      {"measurement": "inhibition in vivo at 3 mg/kg", "setting": "Male Hartley guinea pigs", "value": 91, "unit": "%"}
    ]}
  ]
}
